Test results taken from ChEMBL document CHEMBL4371047, “Effect of α-Methoxy Substitution on the Anti-HIV Activity of Dihydropyrimidin-4(3 H)-ones” (J Med Chem, 2019).

Experiments:
[1] = Therapeutic index, ratio of CC50 for human MT4 cells to EC50 for HIV-1 NL4-3 infected in human MT4 cells; format: toxicity, cell-based; settings: read-out: Ratio CC50/EC50
[2] = test system: Human immunodeficiency virus 1; assay: Antiviral activity against wild type HIV 1 NL4-3 infected in human MT4 cells assessed as inhibition of virus-induced cytopathic effect after 5 days by MTT assay; format: functional, organism-based; settings: Human immunodeficiency virus 1, NL4-3, MT4, 120 h
[3] = Cytotoxicity against human MT4 cells assessed as reduction in cell viability after 5 days by MTT assay; format: cell-based
[4] = test system: Human immunodeficiency virus 1; assay: Antiviral activity against HIV-1 IRLL98 harboring reverse transcriptase M41L, D67N, Y181C, M184V, R211K, and T215Y mutants infected in human MT4 cells assessed as inhibition of virus-induced cytopathic effect after 5 days by MTT assay; format: functional, organism-based; settings: Human immunodeficiency virus 1, IRLL98, MT4, 120 h
[5] = test system: Human immunodeficiency virus 1; assay: Antiviral activity against HIV 1 harboring reverse transcriptase Y181C mutant infected in human MT4 cells assessed as inhibition of virus-induced cytopathic effect after 5 days by MTT assay; format: functional, organism-based; settings: Human immunodeficiency virus 1, MT4, 120 h
[6] = test system: Human immunodeficiency virus 1; assay: Antiviral activity against HIV-1 harboring reverse transcriptase Y188L mutant infected in human MT4 cells assessed as inhibition of virus-induced cytopathic effect after 5 days by MTT assay; format: functional, organism-based; settings: Human immunodeficiency virus 1, MT4, 120 h
[7] = test system: Human immunodeficiency virus 1; assay: Antiviral activity against HIV-1 harboring reverse transcriptase K103N mutant infected in human MT4 cells assessed as inhibition of virus-induced cytopathic effect after 5 days by MTT assay; format: functional, organism-based; settings: Human immunodeficiency virus 1, MT4, 120 h
[8] = test system: Human immunodeficiency virus 1; assay: Antiviral activity against HIV-1 harboring reverse transcriptase K103N/Y181C double mutant infected in human MT4 cells assessed as inhibition of virus-induced cytopathic effect after 5 days by MTT assay; format: functional, organism-based; settings: Human immunodeficiency virus 1, MT4, 120 h
[9] = test system: Human immunodeficiency virus 1; assay: Resistance index, ratio of EC50 for HIV-1 IRLL98 harboring reverse transcriptase M41L, D67N, Y181C, M184V, R211K, and T215Y mutants to EC50 for wild type HIV-1 NL4-3; format: functional
[10] = test system: Human immunodeficiency virus 1; assay: Resistance index, ratio of EC50 for HIV-1 harboring reverse transcriptase Y181C mutant to EC50 for wild type HIV-1 NL4-3; format: functional
[11] = test system: Human immunodeficiency virus 1; assay: Resistance index, ratio of EC50 for HIV-1 harboring reverse transcriptase Y188L mutant to EC50 for wild type HIV-1 NL4-3; format: functional
[12] = test system: Human immunodeficiency virus 1; assay: Resistance index, ratio of EC50 for HIV-1 harboring reverse transcriptase K103N mutant to EC50 for wild type HIV-1 NL4-3; format: functional
[13] = test system: Human immunodeficiency virus 1; assay: Resistance index, ratio of EC50 for HIV-1 harboring reverse transcriptase K103N/Y181C double mutant to EC50 for wild type HIV-1 NL4-3; format: functional
[14] = test system: Human immunodeficiency virus 1; assay: Resistance index, ratio of ID50 for recombinant HIV-1 His-tagged reverse transcriptase p66/p51 K103N mutant to ID50 for recombinant wild type HIV-1 reverse transcriptase His-tagged p66/p51
[15] = test system: Human immunodeficiency virus 1; assay: Resistance index, ratio of ID50 for recombinant HIV-1 His-tagged reverse transcriptase p66/p51 Y181I mutant to ID50 for recombinant wild type HIV-1 reverse transcriptase His-tagged p66/p51
[16] = test system: Human immunodeficiency virus 1; assay: Resistance index, ratio of ID50 for recombinant HIV-1 His-tagged reverse transcriptase p66/p51 L100I mutant to ID50 for recombinant wild type HIV-1 reverse transcriptase His-tagged p66/p51
[17] = test system: Human immunodeficiency virus 1; assay: Potency index, ratio of EFV EC50 to compound EC50 for HIV-1 IRLL98 harboring reverse transcriptase M41L, D67N, Y181C, M184V, R211K, and T215Y mutants infected in human MT4 cells; format: functional
[18] = test system: Human immunodeficiency virus 1; assay: Potency index, ratio of TMC120 EC50 to compound EC50 for HIV-1 IRLL98 harboring reverse transcriptase M41L, D67N, Y181C, M184V, R211K, and T215Y mutants infected in human MT4 cells; format: functional
[19] = test system: Human immunodeficiency virus 1; assay: Potency index, ratio of EFV EC50 to compound EC50 for HIV-1 harboring reverse transcriptase K103N/Y181C double mutant infected in human MT4 cells; format: functional
[20] = target: Human immunodeficiency virus type 1 reverse transcriptase (Human immunodeficiency virus 1) (UniProt Q72547)
Description: Inhibition of recombinant wild type HIV-1 His-tagged reverse transcriptase p66/p51 expressed in Escherichia coli assessed as reduction in [3H]dTTP incorporation using poly(rA)/oligo(dT) as template/primer after 20 mins by scintillation counting analysis

[21] = test system: Human immunodeficiency virus type 1 reverse transcriptase (Human immunodeficiency virus 1), Q72547 [K103N]
Description: Inhibition of recombinant HIV-1 His-tagged reverse transcriptase p66/p51 K103N mutant expressed in Escherichia coli assessed as reduction in [3H]dTTP incorporation using poly(rA)/oligo(dT) as template/primer after 20 mins by scintillation counting analysis

[22] = test system: Human immunodeficiency virus type 1 reverse transcriptase (Human immunodeficiency virus 1), Q72547 [Y181I]
[23] = test system: Human immunodeficiency virus type 1 reverse transcriptase (Human immunodeficiency virus 1), Q72547 [L100I]

Row | SMILES | selectivity ratio [1] | EC50 [2] [nM] | CC50 at 120 h [3] [nM] | EC50 [4] [nM] | EC50 [5] [nM] | EC50 [6] [nM] | EC50 [7] [nM] | EC50 [8] [nM] | Ratio EC50 [9] | Ratio EC50 [10] | Ratio EC50 [11] | Ratio EC50 [12] | Ratio EC50 [13] | Ratio [14] | Ratio [15] | Ratio [16] | ID50 [20] [nM] | ID50 [21] [nM] | ID50 [22] [nM] | ID50 [23] [nM] | other results
1 | CCCN(C)c1nc(C(OC)c2c(Cl)cccc2Cl)c(C)c(=O)[nH]1 (stereo not drawn) | 70800 to 78700 | 0.9 to 1 | 70800 | 2 | 11 to 14 | 30 to 35 | 6 to 7 | 31 | 2 | 11 - 16 | 30 - 39 | 7 | 34 | 2 | 46 to 47 | 21 to 23 | 16 to 18 | 38 to 42 | 740 to 840 | 340 to 420 | Ratio EC50 [17]: 2000 - 3000; Ratio EC50 [18]: 3 - 10; Ratio EC50 [19]: 5 - 15
2 | CCC(C)Sc1nc(C(OC)c2c(F)cccc2Cl)c(C)c(=O)[nH]1 (stereo not drawn) | 264000 | 0.2 | 52800 | 0.6 | 27 | 55 | 1 | 28 | 3 | 135 | 275 | 5 | 140 | 13 | 711 | 133 | 0.9 | 12 | 640 | 120 | Ratio EC50 [17]: 2000 - 3000; Ratio EC50 [18]: 3 - 10; Ratio EC50 [19]: 5 - 15
3 | CCC(C)Sc1nc(C(C)c2c(F)cccc2Cl)c(C)c(=O)[nH]1 (stereo not drawn) | > 5000 | – | > 1500 | 95 | – | – | – | 410 | 317 | – | – | – | 1367 | – | – | – | – | – | – | – | –
4 | Cc1c(C(C)c2c(F)cccc2Cl)nc(SC(C)C)[nH]c1=O (stereo not drawn) | > 375000 | – | > 15000 | 75 | – | – | – | 270 | 1875 | – | – | – | 6750 | – | – | – | – | – | – | – | –
5 | Cc1c(C(C)c2c(F)cccc2F)nc(NC2CCCC2)[nH]c1=O (stereo not drawn) | 3600 | 25 | 90000 | 85 | 220 | 950 | 410 | 420 | 3 | 9 | 38 | 16 | 17 | – | 57 | 17 | 30 | 380 | 1700 | 500 | –
6 | COC(c1nc(SC(C)C)[nH]c(=O)c1C)c1c(F)cccc1Cl (stereo not drawn) | 140000 to 233000 | 0.3 to 0.5 | > 70000 | 1 | 25 to 45 | 52 to 72 | 6 to 8 | 46 | 2 | 83 - 90 | 144 - 173 | 16 - 20 | 92 | 18 to 20 | 320 to 375 | 190 to 225 | 4 to 5 | 81 to 89 | 1500 to 1600 | 900 to 950 | Ratio EC50 [17]: 2000 - 3000; Ratio EC50 [18]: 3 - 10; Ratio EC50 [19]: 5 - 15
7 | COC(c1nc(NC2CCCC2)[nH]c(=O)c1C)c1c(F)cccc1F (stereo not drawn) | 82900 to 93200 | 0.8 to 0.9 | 74600 | 2 | 69 to 75 | 700 to 740 | 5 to 6 | 77 | 2 | 83 - 86 | 822 - 875 | 6 - 7 | 85 | 3 | 57 | 23 | 15 | 39 | 850 | 350 | Ratio EC50 [17]: 2000 - 3000; Ratio EC50 [18]: 3 - 10; Ratio EC50 [19]: 5 - 15
